From publication PMC5677370, “Structure-based nuclear import mechanism of histones H3 and H4 mediated by Kap123” (eLife, 2017)
pKd: −log10 of the molar value.

Key:
[1] = tested on: wild-type Kl Kap123; test: SPR binding of wild-type or mutant H3_1–35-/H4_1–21-NLS peptides to immobilized wild-type Kap123; parameters: species or system Kluyveromyces lactis; details: 10 mM HEPES, 150 mM NaCl, 7°C, relative to wild-type; for affinity of mutant H3-NLS toward Kap123: wild-type Kap123 immobilized 7500 RU on CM5, H3_1–35-NLS peptides 0-5 μM
Method: Figure 5. Surface plasmon resonance analysis of wild-type Kl Kap123 in the presence of wild-type or mutants of H3_1–35-/H4_1–21-NLSs. The biacore diagrams (a) and the normalized bar graph (c) of wild-type Kap123 in the presence of wild-type or mutant H3_1-35-NLS. The wild-type Kap123 was immobilized on a CM5 chip with 7500 RU and the wild-type or mutant H3_1–35-NLS peptides (H3_K14A, H3_K14Q, H3_K23A, H3_K23Q, or H3_K14Q/K23Q) were injected at different concentrations (0, 0.07, 0.15, 0.32, 0.65, 1.25, 2.5, and 5 μM). The biacore diagrams (b) and the bar graph (d) of wild-type Kap123 in the presence of wild-type or mutant H4_1–21-NLS. The wild-type Kap123 was immobilized on a CM5 chip with 7116 RU and the wild-type or mutant H4_1–21-NLS peptides (H4_K16A or H4_K5Q/K12Q) were injected at different concentrations (0, 0.32, 0.62, 1.25, 2.5, 5, and 10 μM). The H4K16Q peptide was used at different concentrations (0, 0.7, 1.5, 3, 6, 12, and 25 uM). See details in Materials and method section. Red-colored sensorgrams represent positive controls of wild-type Kap123, which were injected 2000 nM wild-type Kap123 before and after sample injection (a–b). The relative binding between wild-type Kap123 and mutant peptides was measured at five different concentrations for generating error bars (c–e). (e) The normalized affinity bar graph of H3-/H4-NLS toward wild-type Kap123 was derived from (a) and (b).
A CM5 chip (GE healthcare) was coated with streptavidin in 10 mM acetate pH 4.5 at a flow rate of 5 μl/min. The biotinylated C-terminal histone H3 peptide (residues 1–35) was synthesized (Anygen, South Korea) and immobilized on the CM5 chip coated with streptavidin with a flow rate of 5 μl/min in the binding buffer (10 mM HEPES, 150 mM NaCl). Various concentrations of the wild-type and mutant Kl Kap123 protein (see figure legends of Figures 3 and 4) were prepared in the binding buffer with 2 mM TCEP and then injected at the flow rate of 30 μl/min in the binding buffer using a T200 instrument (GE Healthcare) at 7°C. After injecting the sample, the chip was regenerated by a regeneration buffer (1 M NaCl and 20 mM NaOH in binding buffer) at a flow rate of 30 μl/min. For measuring the interaction of wild-type Kl Kap123 and mutant histone H3 or H4 peptides, 0.1 μM Kap123 diluted in10mM acetate pH 4.0 was immobilized 7100 RU on the CM5 chip at flow rate of 5 μl/min. Peptides of histone H3 or H4 mutants were injected at a flow rate of 30 μl/min in the binding buffer and the binding was monitored at various concentrations (0, 0.31, 0.62, 1.25, 2.5, 5 and 10 uM) at 7°C. For the H4K16Q peptide, Kap 123 was immobilized with 5100 RU on CM5 chip, and H4K16Q and wild-type H4 peptides (0, 0.7, 1.5, 3, 6, 12 and 25 uM) were injected as analytes at a flow rate of 30 μl/min at 7°C.

[2] = molecular target: Kapβ2; details: ref Soniat et al., 2016; read-out: KD of Kapβ2-H3_1–47-NLS interaction; cited from earlier work
Excerpt: Accumulated evidence illustrates that cytosolic histones H3 and H4 are acetylated prior to nuclear import and believed to play a role in the translocation process mediated by Kap123 ([Sobel et al., 1994]; [Sobel et al., 1995]; [Loyola et al., 2006]; [Jasencakova et al., 2010]; [Ma et al., 1998]; [Blackwell et al., 2007]; [Kuo et al., 1996]).

[3] = tested on: Kap123-H3-NLS; test: Competition pull-down: pre-assembled MBP-Kap123-H3-NLS challenged by H4-NLS; format: binding; details: amylose affinity pull-down, MBP-tagged Kap123 pre-assembled with H3_1–59-Sumo, challenged by H4_1–48-Sumo (wild-type or mutant) 0x, 1x, 2x, 5x, 10x; 30 mM Tris–HCl pH 8.0, 50 mM NaCl, 1 mM DTT, 0.01% NP-40; 90 mins at 4°C; three independent assays
Method: Figure 6. Competition assay of H3- and H4-NLSs (wild-type H4 and mutant H4^K5Q/K12Q) toward Kap123 association. Competition of H3_1–59- and H4_1–48-Sumo (a) as well as H3_1–59- and H4_1–48 ^K5Q/K12Q-Sumo (b) toward Kap123 binding was monitored by amylose affinity pull-downs using MBP-tagged Kap123. A fixed amount of the pre-assembled complex of MBP-tagged Kap123 and H4_1–48-Sumo was challenged by an increasing amount of H3_1–59-Sumo. The same competition assay was done by using pre-incubated MBP-tagged Kap123-H3_1–59-Sumo and gradually increasing the amount of H4_1–48-Sumo either with wild-type (a) or mutant (b), K5Q/K12Q) H4 sequence. (c–d) The normalized bar graphs of remaining H3_1–59- and H4_1–48-NLS-Sumo after challenged with increased amounts of H4_1–48- and H3_1–59-NLS-Sumo (0x, 1x, 2x, 5x, and 10x) toward Kap123, respectively. Either H4_1–48-NLS-Sumo (c) or H4_1–48^K5Q/K12Q-NLS-Sumo (d) was used for the H3_1–59-NLS-Sumo competition. Three independent competition assays were carried out and the band intensity was measured to calculate the error bar. Figure 6—figure supplement 1. […] (a) Competition of H3_1–59-Sumo using either H4_1–48-Sumo or H4_1–48 ^K5Q/K8Q/K12Q-Sumo toward Kap123 binding was monitored by amylose affinity pull-downs using MBP-tagged Kap123. […] Three independent competition assays were carried out and the band intensity was measured to calculate the error bar. […]

[4] = tested on: nuclear translocation of the H4-NLS-GFP reporter; details: GFP reporter assay; ref Blackwell et al., 2007; cited from earlier work

Question: Which “affinity of mutant H3-NLS toward Kap123” value ([1]; five concentrations) does the source give for H3 K14A here?
Answer: decreased the affinity toward Kap123

Question: With H3 K14Q as the substance, how does the “affinity of mutant H3-NLS toward Kap123” value ([1]; five concentrations) read?
Answer: decreased the affinity toward Kap123

Question: Which “affinity of mutant H3-NLS toward Kap123” value ([1]; five concentrations) does the source give for H3 K23A here?
Answer: decreased the affinity toward Kap123

Question: Which “affinity of mutant H3-NLS toward Kap123” value ([1]; five concentrations) does the source give for H3 K23Q here?
Answer: decreased the affinity toward Kap123

Question: With “H3_1–47-NLS: histone H3 residues 1–47 NLS bound to Kapβ2” as the substance, how does the pKd [2] read?
Answer: 7.11

Question: Which “competition with H3-NLS for Kap123” value [3] does the source give for “H4-NLS^K5Q/K8Q/K12Q: tri-acetylation mimic mutant of H4-NLS (H4_1–48-Sumo in competition assay)” here?
Answer: no longer competed with H3-NLS in Kap123 interaction

Question: What about the “nuclear translocation of H4-NLS-GFP reporter, acetylation mimic” value [4] of the same substance?
Answer: dramatically reduced the nuclear translocation

Question: With H4-NLS^K16A as the substance, how does the “affinity of mutant H4-NLS toward Kap123” value ([1]; wild-type Kap123 immobilized 7116 RU on CM5, H4_1–21-NLS peptides 0-10 μM, five concentrations) read?
Answer: reduced the affinity toward Kap123 although the effect was mild

Question: With H4-NLS^K16Q as the substance, how does the “affinity of H4 K16Q toward Kap123” value ([1]; Kap123 immobilized 5100 RU on CM5, H4K16Q 0-25 uM) read?
Answer: reduced the affinity toward Kap123 although the effect was mild

Question: For “H4_1–48^K5Q/K12Q-Sumo: C-terminal Sumo-tagged histone H4_1–48, K5Q/K12Q”, which “competition with H3-NLS for Kap123” value [3] is on record?
Answer: loss of competition
